According to patent US8329693B2, “Method for the prevention of thromboembolic disorders” (Orion Corporation, priority 2004, dated 2012):

Tested on: salt sensitive rat model
Test: Stroke in salt sensitive rat model (summary statements)
Assay type: in vivo
Settings: preventative treatment

CC(=O)Nc1ccc(C2=NNC(=O)C[C@H]2C)cc1 [metabolite (II), (R)—N-[4-(1,4,5,6-tetrahydro-4-methyl-6-oxo-3-pyridazinyl)phenyl]acetamide]
incidence and volume of brain lesions, behavioural disorders and mortality associated with stroke: markedly reduce
